{
  "source": "patent US20250051286A1",
  "about": "“SMALL MOLECULE INHIBITORS OF PR3 AND HNE AND USES THEREOF” (ORIXA THERAPEUTICS LLC, priority 2021, published 2025)",
  "molecules": {"B1": {"name": "SLPI: locally produced chelonianin; inhibits HNE but not PR3 (protein, UniProt P03973 26-132, looked up)", "Antileukoproteinase": "SGKSFKAGVCPPKKSAQCLRYKKPECQSDWQCPGKKRCCPDTCGIKCLDPVDTPNPTRRKPGKCPVTYGQCLMLNPPNFCEMDGQCKRDLKCCMGMCGKSCVSPVKA"}},
  "key": {"[1]": {"conditions": "CF patients in an exacerbated state of inflammation; cited from earlier work"}, "[2]": {"assay": "Treatment of severe inflammation, post-surgery patient (Example 5)", "format": "in vivo, human", "conditions": "intravenously 5 mcg/minute for 1 hour, second dose after 24 hours; within two days", "procedure": "In this example, a patient is recovering from surgery following a traumatic vehicle accident. The treating physician anticipates further complications such as acute respiratory distress syndrome (ARDS) and (multiple) organ failure. To prevent this, the treating physician administers a compound of Formula DCT-5A to the patient. The patient is administered the drug intravenously (i.e., 5 mcg/minute for 1 hour). The patient is administered a second dose after 24 hours. […] The patient resumes the treatment and is periodically monitored for changes in their condition."}, "[3]": {"assay": "Treatment of Alpha-1 Antitrypsin Deficiency patient (Example 4)", "format": "in vivo, human", "conditions": "orally 50 mg once per day; within two weeks", "from_the_text": "In this example, a patient is diagnosed with AATD after presenting symptoms related to difficulty breathing and mild jaundice. […] The patient receives conventional therapy (e.g., bronchodilators, inhaled corticosteroids, pulmonary rehabilitation and supplemental oxygen). […] This treatment leads to some improvement, but the patient returns to the clinic seeking an alternative treatment.\nThe treating physician administers a compound of Formula DCT-5A to the patient: […]\nThe patient is administered the drug orally (i.e., 50 mg, once per day). Within two weeks, the signs/symptoms of AATD are resolved by about 80% and the patient appears in good health. The patient resumes the treatment and is periodically monitored for changes in their condition."}, "[4]": {"assay": "Treatment of PR3 positive ulcerative colitis patient (Example 7)", "format": "in vivo, human", "conditions": "intravenously 5 mcg/minute for 1 hour, second dose after 24 hours; within two days", "procedure": "In this example, a patient is admitted to a hospital with cough and fever (over 39.0° C.). About one month prior, they had presented with fever (over 39.0° C.), diarrhea and bloody bowel discharge. Upon admission, their hemoglobin was 8.9 g/dl and the serum C-reactive protein level was 6.8 mg/dl. […] Further, the patient tested positive for PR3-ANCA serological marker.\nThe treating physician administers a compound of Formula DCT-5A to the patient. The patient is administered the drug intravenously (i.e., 5 mcg/minute for 1 hour). The patient is administered a second dose after 24 hours. […] Thereafter, the patient is administered the drug orally (50 mg per day). The patient resumes the treatment and is periodically monitored for changes in their condition."}, "[5]": {"assay": "Treatment of Granulomatosis with Polyangiitis patient (Example 6)", "format": "in vivo, human", "conditions": "GPA patient; orally 50 mg once per day; within one week", "procedure": "In this example, a patient complains of several symptoms including sinus pain, cough, fever, joint aches, blood in urine, and hearing loss. A physician diagnosis them with GPA after analyzing diagnostic markers.\nThe treating physician anticipates further complications such as acute respiratory distress syndrome (ARDS) and (multiple) organ failure. To prevent this, the treating physician administers a compound of Formula DCT-5A to the patient. The patient is administered the drug orally (i.e., 50 mg, once per day). Within one week, the signs/symptoms of AATD are resolved by about 90% and the patient appears in good health. The patient resumes the treatment and is periodically monitored for changes in their condition."}, "[6]": {"conditions": "DSS-induced mouse model of UC; cited from earlier work"}},
  "note": "No end group written: not given here.",
  "data": [
    {"molecule": "A1PI: α1-proteinase inhibitor, a serpin; endogenous inhibitor of neutrophilic serine proteinases", "values": [
      {"measurement": "effect on IL6, IL1β and NE activity", "setting": "[1]", "result": "decrease"}
    ]},
    {"molecule": "N=C(N)NCCC(CCCc1ccc(F)cc1)C(=O)NN1CN(CCCc2ccccc2)[C@H](Cc2ccc(O)cc2)C1=O", "note": "(stereo partly shown) [DCT-5A]", "values": [
      {"measurement": "clinical course of the patient", "setting": "[2]", "result": "shows signs of improvement"},
      {"measurement": "signs/symptoms of AATD resolved", "setting": "[3]", "result": "about 80%"},
      {"measurement": "clinical course of the patient", "setting": "[4]", "result": "shows signs of improvement"},
      {"measurement": "signs/symptoms of AATD resolved", "setting": "[5]", "result": "about 90%"}
    ]},
    {"molecule": "elafin: polypeptide inhibitor of some peptidases and elastases; inhibits HNE, PR3 and pancreatic elastase (AQEPVKGPVSTKPGSCPIILIRCAMLNPPNRCLKDTDCPGIKKCCEGSCGMACFVPQ; ends and bridges not checked; cysteine pairing not given here; UniProt P19957 61-117, looked up)", "values": [
      {"measurement": "reducing inflammation", "setting": "[6]", "result": "successful in reducing inflammation in a dose-dependent manner"}
    ]},
    {"molecule": "B1", "values": [
      {"measurement": "reducing inflammation", "setting": "[6]", "result": "also successful"}
    ]}
  ]
}
